The numbers were not newly measured in article PMC7590008, “Slow Dissolution Kinetics of Model Peptide Fibrils” (International Journal of Molecular Sciences, 2020), which cites them from elsewhere.

For this series the following is noted: can be considered a strong acid. An excerpt:
First of all, for c<cs , the pH ≈6.3 is essentially the same as that of pure water (with some dissolved CO 2 ). This means that the A 8 K is a neutral salt and not a net acid or base. This implies that we can write the compound as PH ^+ TFA ^− , where P stands for the A 8 K peptide. The dry compound is a TFA salt, but with only one TFA counterion, because the carboxyl group is neutralized by one of the two ammonium groups ...

Where a name gives a salt, the structure may show the parent alone.

Turning to `O=C(O)C(F)(F)F` [TFA, Trifluoroacetate], the pK a result is “≈ 1”.
